Non-standard residues stand in square brackets, D forms with d. Residues, ends and D or L forms follow the SMILES beside them. pY = N[C@@H](Cc1ccc(OP(=O)(O)O)cc1)C(=O)O; Ahx = NCCCCCC(=O)O
Experiments:
[1] = molecular target: α-phosphotyrosine antibody (α-pTyr 100); test: Titration of α-pY antibody on peptide microarrays; format: binding; settings: for Kd: peptide microarray, α-pY antibody 0.06 to 6.66 nM, 3 h at 4 °C, indirect immunofluorescence (Alexa633), bimolecular binding isotherm (Eq. 1), average ± standard deviation, six independent experiments; for α-pY titration curve / binding: result in words, R^2 of 0.8 as cutoff for a binder; for affinity of the α-pY antibody (in words): compared with the other pY peptides
Experimental: (§1) Peptides that correspond to known interaction motifs involved in the formation of protein complexes in T cell signalling were purchased from EMC microcollections (Tübingen, Germany). All peptides carried an extra cysteine residue and a free N-terminus for immobilisation on the microarray substrates and a C-terminal amidation (see Electronic Supplementary Material (ESM), Table S1).
(§2) For generation of microarrays, peptide stock solutions (3 mM) in DMF were diluted 30 times with phosphate buffer (100 mM, pH 8) supplemented with 0.006 % (v/v) Triton X-100. N-Hydroxysuccinimide-preactivated slides served as substrates for immobilisation (Nexterion Slide H, Schott Nexterion/Peq-Lab, Erlangen, Germany) using a Nano-Plotter NP2.0 (GeSIM, Großerkmannshof, Germany), which employs piezo-driven pipetting tips to dispense peptide solutions. Microarray slides comprised 16 subarrays of doublets of each peptide. For each peptide, a volume of 1.2 nl was dispensed at a centre-to-centre spacing of 500 μm. During printing, temperature was maintained at 15 °C and air humidity at 65 %.
(§3) Sixteen incubation chambers with identical subarrays consisting of peptides derived from binding motifs of signalling proteins (see ESM Table S1) were generated by attaching a clip-on frame to the microarray substrate (ProPlate Multiarray System, Grace Biolabs, Molecular Probes, Eugene, OR, USA). The typical incubation volume for the subarrays was 50 μl. Microarrays were either incubated with an α-pY antibody (α-pTyr 100, 9411, Cell Signalling, Frankfurt am Main, Germany) at the indicated concentrations or co-incubated with cell lysate at the indicated concentrations for 3 h at 4 °C. Additionally, in another set of experiments, recombinant GRB2-SH2 was incubated on microarrays alone or co-incubated with cell lysate employing an α-penta HIS antibody (34600, Qiagen, Hilden, Germany) for the detection of His-tagged GRB2-SH2.
(§4) After incubation, microarrays were washed three times with washing buffer (PBS, 0.05 % (w/v) BSA, 0.05 % (w/v) Tween-20). For the detection of signals, microarrays were incubated with a secondary α-mouse antibody conjugated with Alexa633 (A-21050, Invitrogen) at a concentration of 1 μg/ml for 15 min at RT followed by a last washing step with washing buffer. Microarrays were dried with nitrogen and scanned using a ProScanArray (PerkinElmer Life Sciences, Waltham, Massachusetts), and the data were analysed using ArrayPro Analyzer software (Media Cybernetics, Silver Spring, USA) as described before. Final data represented the mean signal intensities corrected for the median of a ring-shaped local background surrounding the respective peptide spot. Titrations with α-pY antibody and GRB2-SH2 were performed to calculate dissociation constants (see below).
The resulting titration curves were fitted with Origin (OriginLab Corporation, v.6.1057, Northampton, USA) using a binding isotherm for a bimolecular interaction (Eq. 1):1 Fabs=Fmaxprot/Kd+prot Fabs represents the intensity of a microarray spot after background correction and [prot] the concentration of the titrated binder. Kd and Fmax were obtained from the fits.
To render this approach quantitative, first the affinities of the α-pY antibody towards the phosphotyrosine motifs of the microarrays were determined. […] The titration curves were fitted with a binding isotherm for a bimolecular interaction (Eq. 1, Fig. 2a, Table 1). In general, a coefficient of determination (R^2) of 0.8 was used as a cutoff in order to score a peptide as a binder. […] Regarding the poly-proline motif (PP) containing peptides present on the microarray, only on the peptide GAB2-509 in five experiments, a titration curve with an R^2 > 0.8 could be generated.

[2] = test system: proteins in Jurkat cell lysate (total cellular proteome); test: Competition of α-pY antibody binding with Jurkat cell lysate on peptide microarrays; settings: for Kd: from EC50 and Kd α-pY by Cheng-Prusoff equation (Eq. 4), ± standard deviation
Experimental: as §1, §2
Jurkat T cell leukaemia cells were maintained in RPMI 1640 medium (PAN-Biotech, Aisenbach, Germany) supplemented with 10 % foetal calf serum at 37 °C in 5 % CO2. For the preparation of lysates, cells were resuspended in lysis buffer (1 % Triton X-100, 50 mM n-octyl-D-glucopyranoside (Fluka, Taufkirchen, Germany), 20 mM Tris, 1 mM EDTA, 150 mM NaCl, 1 mM Na3VO4, pH 7.5, and complete protease inhibitor cocktail (Roche Applied Science, Mannheim, Germany)). Incubation on ice for 1 h was followed by centrifugation at 20,000×g at 4 °C for 15 min to remove cell debris. Transmembrane proteins were extracted from lipid rafts by using N-octyl-D-glucopyranoside. Protein concentrations were measured by Bradford Assay.
as §3, §4
For determination of EC50 values for competition with cell lysate, curves were fitted according to2 y=y0+Ae^−x/t with y0 as the signal intensity of the α-pY antibody or the recombinant GRB2-SH2 domain without cell lysate, A the amplitude, x the protein concentration in lysate, and t the decay constant. […]

[3] = test system: SH2 domain of GRB2 (GRB2-SH2); settings: cited from earlier work; for binding to GRB2 / GRB2-SH2 (in words): Kd values of GRB2-SH2 described in recently published manuscript, ref [14]
Description: In contrast, the data points for LATpY191 and SHP1pY564, and SigpY437, ZAPpY319 and CDζpY72/83 were above or below the linear correlation defined by the first four peptides. […] SigpY437, in contrast, is a poor binder for which already low concent ...

With CC[C@H](C)[C@H](NC(=O)CNC(=O)[C@H](CC(=O)O)NC(=O)[C@H](Cc1ccc(OP(=O)(O)O)cc1)NC(=O)[C@@H](NC(=O)[C@H](CC(=O)O)NC(=O)[C@H](CC(=O)O)NC(=O)[C@H](CC(=O)O)NC(=O)[C@@H](N)CS)[C@@H](C)CC)C(=O)N[C@@H](CCC(=O)O)C(=O)N[C@@H](CCC(=O)O)C(=O)N[C@@H](CCC(=O)O)C(=O)N[C@@H](CC(=O)O)C(N)=O [FYBpY625] (H-CDDDI[pY]DGIEEED-NH2) as the compound, how does the Kd [1] read?
The Kd was 0.46 ± 0.15 nM.

And the Kd [2]?
The Kd was 17000 ± 13000 nM.

For CC(C)C[C@H](NC(=O)[C@H](Cc1ccc(OP(=O)(O)O)cc1)NC(=O)CNC(=O)[C@@H]1CCCN1C(=O)[C@H](CC(N)=O)NC(=O)[C@H](Cc1c[nH]cn1)NC(=O)[C@H](Cc1ccc(O)cc1)NC(=O)[C@H](CC(=O)O)NC(=O)[C@H](CC(=O)O)NC(=O)[C@H](CCC(=O)O)NC(=O)[C@H](CC(=O)O)NC(=O)[C@H](CCC(=O)O)NC(=O)[C@@H](N)CS)C(=O)N[C@H](C(=O)N[C@H](C(=O)N[C@@H](CC(C)C)C(=O)N1CCC[C@H]1C(=O)N[C@@H](CC(=O)O)C(=O)N[C@@H](CO)C(=O)N[C@H](C(=O)N1CCC[C@H]1C(N)=O)[C@@H](C)O)C(C)C)C(C)C [LATpY132] (H-CEDEDDYHNPG[pY]LVVLPDSTP-NH2), which Kd [1] is on record?
The Kd was 0.41 ± 0.38 nM.

And the Kd [2]?
Its Kd is 11000 ± 13000 nM.

What about the “binding to GRB2 / GRB2-SH2 (in words)” value [3] of the same compound?
The value was “good binder”.

With CLDIQDKPPAPPMRNT-NH2 [PAK6] as the compound, how does the “α-pY titration curve / binding” value [1] read?
Its value is “no titration curves could be generated”.

What does the source list for CC[C@H](C)[C@H](NC(=O)[C@H](CCCNC(=N)N)NC(=O)[C@H](C)NC(=O)[C@@H]1CCCN1C(=O)[C@H](CCC(=O)O)NC(=O)[C@@H]1CCCN1C(=O)[C@@H](NC(=O)[C@H](Cc1ccc(OP(=O)(O)O)cc1)NC(=O)CNC(=O)[C@H](CC(=O)O)NC(=O)[C@H](CO)NC(=O)[C@H](CC(N)=O)NC(=O)[C@H](CC(C)C)NC(=O)[C@@H](NC(=O)[C@H](CC(=O)O)NC(=O)[C@@H](NC(=O)[C@@H](N)CS)[C@@H](C)CC)[C@@H](C)O)[C@@H](C)O)C(=O)N[C@H](C(N)=O)[C@@H](C)O [ZAPpY296] (H-CIDTLNSDG[pY]TPEPARIT-NH2)?
affinity of the α-pY antibody (in words) [1]: relatively low affinity; Kd [1]: 1.32 ± 0.59 nM; Kd [2]: 27000 ± 28000 nM; binding to GRB2 / GRB2-SH2 (in words) [3]: good binder

Which results are given for CC(C)C[C@H](NC(=O)[C@@H](NC(=O)[C@H](CC(=O)O)NC(=O)[C@H](Cc1ccc(OP(=O)(O)O)cc1)NC(=O)[C@H](CCC(=O)O)NC(=O)[C@H](CCC(=O)O)NC(=O)[C@H](CCCNC(=N)N)NC(=O)[C@H](CCCNC(=N)N)NC(=O)CNC(=O)[C@H](CC(C)C)NC(=O)[C@H](CC(N)=O)NC(=O)[C@H](CC(C)C)NC(=O)[C@H](CCC(=O)O)NC(=O)[C@H](CC(N)=O)NC(=O)[C@H](Cc1ccc(OP(=O)(O)O)cc1)NC(=O)[C@H](CC(C)C)NC(=O)[C@H](CCC(N)=O)NC(=O)[C@H](CC(N)=O)NC(=O)CCCCCNC(=O)[C@@H](N)CS)C(C)C)C(N)=O [CD3ζpY72/83] (H-C[Ahx]NQL[pY]NELNLGRREE[pY]DVL-NH2)?
Kd [1]: 0.69 ± 0.61 nM; Kd [2]: 25000 ± 27000 nM

Which results are given for CSCC[C@H](NC(=O)[C@H](CC(=O)O)NC(=O)[C@H](CC(C)C)NC(=O)[C@@H](N)CS)C(=O)NCC(=O)N[C@@H](CC(=O)O)C(=O)N[C@@H](CCC(=O)O)C(=O)N[C@H](C(=O)N[C@@H](Cc1ccc(OP(=O)(O)O)cc1)C(=O)N[C@@H](CC(=O)O)C(=O)N[C@@H](CC(=O)O)C(=O)N[C@H](C(=O)N[C@@H](CC(=O)O)C(=O)N[C@H](C(=O)N[C@@H](CO)C(=O)N[C@@H](CC(=O)O)C(=O)N[C@@H](Cc1ccccc1)C(N)=O)[C@@H](C)O)C(C)C)C(C)C [FYBpY651] (H-CLDMGDEV[pY]DDVDTSDF-NH2)?
Kd [1]: 0.28 ± 0.09 nM; Kd [2]: 12000 ± 9000 nM

With CGNKGRSGPLPPVPLGIA-NH2 [WAS334] as the compound, how does the “α-pY titration curve / binding” value [1] read?
Its value is “no titration curves could be generated”.

For CC(C)C[C@H](NC(=O)[C@H](CC(N)=O)NC(=O)[C@H](CCC(=O)O)NC(=O)[C@H](Cc1ccc(OP(=O)(O)O)cc1)NC(=O)[C@@H](NC(=O)[C@H](CC(=O)O)NC(=O)[C@H](CCC(=O)O)NC(=O)[C@H](CCCCN)NC(=O)[C@H](Cc1c[nH]cn1)NC(=O)[C@H](CCCCN)NC(=O)[C@H](CO)NC(=O)[C@@H](N)CS)C(C)C)C(=O)N[C@@H](Cc1c[nH]cn1)C(=O)N[C@H](C(=O)N[C@@H](CCCCN)C(=O)N[C@@H](CC(N)=O)C(=O)N[C@@H](CCCCN)C(N)=O)[C@@H](C)O [SHP1pY564] (H-CSKHKEDV[pY]ENLHTKNK-NH2), which “affinity of the α-pY antibody (in words)” value [1] is on record?
Its value is “relatively low affinity”.

What about the Kd [1] of the same compound?
The Kd was 0.89 ± 0.57 nM.

And the Kd [2]?
Its Kd is 17000 ± 10000 nM.

What about the “affinity for the SH2 domain of GRB2 (in words)” value ([3]; same as stated for LATpY191 (strong affinity for SH2 domain of GRB2), ref [27]) of the same compound?
Its value is “The same holds true”.

For CC(C)[C@H](NC(=O)[C@H](CC(=O)O)NC(=O)[C@H](CC(=O)O)NC(=O)[C@H](Cc1ccc(OP(=O)(O)O)cc1)NC(=O)[C@@H](NC(=O)[C@H](CCC(=O)O)NC(=O)[C@H](CCC(N)=O)NC(=O)[C@H](CC(=O)O)NC(=O)[C@H](CC(=O)O)NC(=O)[C@H](CCC(=O)O)NC(=O)[C@@H](N)CS)C(C)C)C(=O)N[C@@H](C)C(=O)N[C@@H](CCC(=O)O)C(=O)N[C@@H](CCC(N)=O)C(=O)N[C@@H](CC(=O)O)C(N)=O [FYBpY595] (H-CEDDQEV[pY]DDVAEQD-NH2), which Kd [1] is on record?
Its Kd is 0.77 ± 0.28 nM.

With CC[C@H](C)[C@H](NC(=O)[C@H](CC(=O)O)NC(=O)[C@H](CC(=O)O)NC(=O)[C@H](Cc1ccc(OP(=O)(O)O)cc1)NC(=O)[C@@H](NC(=O)[C@H](CCC(=O)O)NC(=O)CNC(=O)[C@H](CC(=O)O)NC(=O)[C@H](CC(N)=O)NC(=O)[C@@H](N)CS)[C@@H](C)CC)C(=O)N[C@@H](C)C(=O)N[C@@H](CC(=O)O)C(=O)NCC(N)=O [FYBpY771] (H-CNDGEI[pY]DDIADG-NH2) as the compound, how does the Kd [1] read?
Its Kd is 0.5 ± 0.23 nM.

What about the “affinity for / binding to cellular proteome (in words)” value ([2]; competition of α-pY with cell lysate, FYB peptides) of the same compound?
The value was “highest affinity of all four FYB peptides”.

What about the Kd [2] of the same compound?
Its Kd is 5000 ± 1000 nM.

For CC(C)C[C@H](NC(=O)[C@H](CCC(=O)O)NC(=O)[C@H](CCC(=O)O)NC(=O)[C@@H]1CCCN1C(=O)[C@H](CC(=O)O)NC(=O)[C@H](CO)NC(=O)[C@H](Cc1ccc(OP(=O)(O)O)cc1)NC(=O)[C@@H]1CCCN1C(=O)[C@H](CO)NC(=O)[C@H](CCC(=O)O)NC(=O)[C@H](Cc1ccc(O)cc1)NC(=O)[C@@H](NC(=O)[C@@H](N)CS)C(C)C)C(=O)N[C@@H](CCCCN)C(=O)N[C@@H](CC(=O)O)C(N)=O [ZAPpY319] (H-CVYESP[pY]SDPEELKD-NH2), which Kd [1] is on record?
Its Kd is 0.6 ± 0.46 nM.

What about the Kd [2] of the same compound?
The Kd was 26000 ± 32000 nM.

From publication PMC4830892, “A microarray-based approach to evaluate the functional significance of protein-binding motifs” (Analytical and Bioanalytical Chemistry, 2016)
